The values below come from US20220160716A1 (SORBONNE UNIVERSITE, priority 2019, published 2022).

Assay [1] concerns the target T1, ABCB4-I490T (Homo sapiens, UniProt P21439, I490T). Briefly: ABCB4-mediated phosphatidylcholine secretion, HEK cells expressing ABCB4-I490T. Format: cell-based. Also on record: The subcloning of wild type (WT) ABCB4, isoform A (NM_000443.3), into pcDNA3 vector has been described; expressed in transfected cells; host or cells: HEK-293 (immunoblot, PC secretion). As to conditions: 25 μM. The protocol:
(§1) Cyclosporin A (CsA) was from Santa Cruz Biotechnologies (Dallas, Tex.). […] Each compound was solubilized in dimethylsulfoxide (DMSO) as 1000× concentrated stock solutions in order to treat cells with 5 μM to 100 μM final concentrations, using DMSO as control vehicle at the same dilution (0.1% DMSO for all conditions). The cells were treated 24 hours post-transfection with these drugs during 16 hours, except for the viability assays for which cells were treated during three days. After drug treatment, cells were used for immunoanalyses, cell viability assays or PC secretion assays.
(§2) HEK cells were seeded in 0.01% poly-L-lysine (Sigma) pre-coated 6-well plates of 10 cm^2 area per well (1.3×10^6 cells per well). After transient transfection of the empty vector (control), plasmids encoding ABCB4-WT or its variants, cells were incubated during 24 hours at 37° C. in serum-free medium supplemented with 0.5 mM sodium taurocholate (Sigma) and 0.02% fatty acid-free bovine serum albumin (Sigma). Then, the secreted PC was quantified from the collected media using a fluoro-enzymatic assay previously described (12). Each condition was analysed in triplicate, after background subtraction, and results were normalized to the expression levels of ABCB4 determined by immunoblots of the corresponding cell lysates.

The target of another assay is T2, CDK2/A (Homo sapiens, UniProt P24941).
T2 construct: made in house
Briefly: Protein kinase catalytic activity assay, CDK2/cyclin A. The class given is biochemical. The note with it: activator cyclin A; read-out: IC50 of protein kinases, CDK2/A.

The target in another assay is CK1. Description: Protein kinase catalytic activity assay, CK1. Format: biochemical. The note with it: read-out: IC50 of protein kinases, CK1.
The target in the next assay is T3, CLK1 (Homo sapiens, UniProt P49759).
T3 construct: made in house
Description: Protein kinase catalytic activity assay, CLK1. Format: biochemical. The note with it: read-out: IC50 of protein kinases, CLK1.

Another assay addresses T4, ABCB4-WT (Homo sapiens, UniProt P21439).
T4 construct: The subcloning of wild type (WT) ABCB4, isoform A (NM_000443.3), into pcDNA3 vector has been described; expressed in transfected cells; host or cells: HEK-293
Briefly: ABCB4-mediated phosphatidylcholine secretion, HEK cells expressing ABCB4-WT. Format: cell-based. The note with it: for inhibition of ABCB4-WT-mediated PC secretion compared to roscovitine: 10 μM and 25 μM; for log IC50 on the PC secretion activity of ABCB4-WT / pIC50: from dose-response curves of FIG. 4C; for pIC50: read-out: IC50 on the PC secretion activity of ABCB4-WT. Here is the method: as §1, §2

The target of assay [2] is T5, ABCB4-I541F (Homo sapiens, UniProt P21439, I541F). Briefly: ABCB4-mediated phosphatidylcholine secretion, HEK cells expressing ABCB4-I541F. The class given is cell-based. Also on record: The subcloning of wild type (WT) ABCB4, isoform A (NM_000443.3), into pcDNA3 vector has been described; expressed in transfected cells; host or cells: HEK-293 (immunoblot, PC secretion). The note with it: 25 μM, maximal activity = cells expressing ABCB4-WT, vehicle 7.1±0.8%. The protocol:
as §1, §2

Assay [3] deals with T1, ABCB4-I490T. Briefly: Canalicular localisation of ABCB4-I490T by indirect immunofluorescence in HepG2 cells. The class given is cell-based. Also on record: The subcloning of wild type (WT) ABCB4, isoform A (NM_000443.3), into pcDNA3 vector has been described; expressed in transfected cells; host or cells: HepG2 (immunofluorescence). The note with it: 25 μM. Here is the method: For indirect immunofluorescence, HepG2 cells were grown on glass coverslips and after transfection and treatments, they were fixed and permeabilized during 1 min at −20° C. in ice-cold methanol. Then ABCB4 and ABCC2 were immunolabelled using the mouse monoclonal P3II-26 (IgG2b) and M2I-4 (IgG1) antibodies (Enzo Life Sciences), respectively. AlexaFluor® 555 and AlexaFluor® 488 conjugated isotype-specific secondary antibodies (Thermo Fisher Scientific) and Hoechst 33342 (Thermo Fisher Scientific) were used to label ABCB4, ABCC2 and nuclei, respectively. Images were acquired using an IX83 inverted fluorescence microscope from Olympus (Rungis, France), equipped with a UPLSAPO 60XS2 silicone immersion objective and a Hamamatsu ORCA Flash4.0 digital CMOS camera, and analysed using Olympus CellSens Dimension Desktop version 1.16 and Adobe Photoshop version 8.0.1. For each experiment, all images were acquired with constant settings (acquisition time and correction of signal intensities).

The target of another assay is GSK3 (Homo sapiens, UniProt P49841). Description: Protein kinase catalytic activity assay, GSK3. The note with it: read-out: IC50 of protein kinases, GSK3. Format: biochemical.
The target in another assay is T6, CDK9/T (Homo sapiens, UniProt P50750).
T6 construct: made in house
Description: Protein kinase catalytic activity assay, CDK9/cyclin T. Format: biochemical. As to conditions: activator cyclin T; read-out: IC50 of protein kinases, CDK9/T.

For assay [4], the target named is T5, ABCB4-I541F. Description: Maturation of ABCB4-I541F by immunoblot in HEK cells. The class given is cell-based. Also on record: The subcloning of wild type (WT) ABCB4, isoform A (NM_000443.3), into pcDNA3 vector has been described; expressed in transfected cells; host or cells: HEK-293 (immunoblot, PC secretion). The note with it: for maturation (mature form) of ABCB4-I541F: HEK cells, 100 μM, 16 hours, immunoblot; for correction of ABCB4-I541F maturation: HEK cells, 5, 10 and 25 μM. Here is the method:
as §1
Western blots and indirect immunofluorescence were performed as previously described (2, 12). […] Signals were detected with ECL prime western blotting detection reagent (GE Healthcare, Velizy-Villacoublay, France) and quantified in the linear range of detection using ImageJ 1.50i software (U.S. National Institutes of Health, Bethesda, Md.).
Background: Immunoblotting shows a protein as a band on a membrane.

pIC50: −log10 of the molar value. “Also recorded” adds a separate entry of the source.

Chain of GSK3 (P49841 whole entry): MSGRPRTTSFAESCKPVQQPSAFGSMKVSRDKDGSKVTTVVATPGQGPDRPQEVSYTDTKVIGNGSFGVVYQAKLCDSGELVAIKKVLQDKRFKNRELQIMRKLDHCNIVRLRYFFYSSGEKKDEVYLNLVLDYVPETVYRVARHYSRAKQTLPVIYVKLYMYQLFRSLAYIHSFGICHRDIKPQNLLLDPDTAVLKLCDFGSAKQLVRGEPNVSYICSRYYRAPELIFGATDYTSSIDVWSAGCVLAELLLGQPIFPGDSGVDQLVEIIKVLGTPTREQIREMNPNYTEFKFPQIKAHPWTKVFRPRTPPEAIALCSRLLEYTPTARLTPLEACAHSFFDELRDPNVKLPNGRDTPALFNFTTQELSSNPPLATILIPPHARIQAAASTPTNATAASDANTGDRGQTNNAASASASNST
T1 sequence (P21439 1-1279 isoform P21439-2 I490T): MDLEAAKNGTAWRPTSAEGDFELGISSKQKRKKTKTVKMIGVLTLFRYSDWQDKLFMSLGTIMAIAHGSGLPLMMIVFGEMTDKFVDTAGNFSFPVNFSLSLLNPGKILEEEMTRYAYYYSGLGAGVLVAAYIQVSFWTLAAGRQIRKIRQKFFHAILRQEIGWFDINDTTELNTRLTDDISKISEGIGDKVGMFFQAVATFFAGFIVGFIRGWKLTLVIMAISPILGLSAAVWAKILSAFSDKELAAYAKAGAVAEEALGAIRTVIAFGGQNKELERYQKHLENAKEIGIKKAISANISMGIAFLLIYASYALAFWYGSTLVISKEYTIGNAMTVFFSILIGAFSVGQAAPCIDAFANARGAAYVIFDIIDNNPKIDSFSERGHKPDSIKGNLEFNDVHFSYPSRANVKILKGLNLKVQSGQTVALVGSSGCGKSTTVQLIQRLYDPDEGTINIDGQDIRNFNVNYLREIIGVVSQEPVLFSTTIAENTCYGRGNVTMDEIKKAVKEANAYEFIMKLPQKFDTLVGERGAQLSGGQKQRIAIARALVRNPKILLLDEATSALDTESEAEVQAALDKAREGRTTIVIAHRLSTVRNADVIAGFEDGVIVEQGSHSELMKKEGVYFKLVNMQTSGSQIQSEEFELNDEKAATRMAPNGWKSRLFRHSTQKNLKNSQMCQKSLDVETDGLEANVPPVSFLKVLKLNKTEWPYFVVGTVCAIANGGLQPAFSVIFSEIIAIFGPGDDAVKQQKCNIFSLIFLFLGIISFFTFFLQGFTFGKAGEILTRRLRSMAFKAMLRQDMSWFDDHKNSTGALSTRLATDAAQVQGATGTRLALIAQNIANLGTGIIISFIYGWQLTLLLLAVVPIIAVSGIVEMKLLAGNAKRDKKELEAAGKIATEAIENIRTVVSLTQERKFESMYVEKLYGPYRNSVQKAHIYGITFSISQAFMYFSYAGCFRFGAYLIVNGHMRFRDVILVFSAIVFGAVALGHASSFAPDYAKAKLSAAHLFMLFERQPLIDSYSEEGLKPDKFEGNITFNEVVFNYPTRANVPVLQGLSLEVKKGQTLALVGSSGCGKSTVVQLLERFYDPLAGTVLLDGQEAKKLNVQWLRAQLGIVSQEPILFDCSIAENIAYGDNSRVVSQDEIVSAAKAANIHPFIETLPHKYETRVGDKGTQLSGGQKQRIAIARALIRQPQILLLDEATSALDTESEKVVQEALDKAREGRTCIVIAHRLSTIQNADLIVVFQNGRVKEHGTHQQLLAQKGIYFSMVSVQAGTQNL
T4 sequence (P21439 1-1279 isoform P21439-2): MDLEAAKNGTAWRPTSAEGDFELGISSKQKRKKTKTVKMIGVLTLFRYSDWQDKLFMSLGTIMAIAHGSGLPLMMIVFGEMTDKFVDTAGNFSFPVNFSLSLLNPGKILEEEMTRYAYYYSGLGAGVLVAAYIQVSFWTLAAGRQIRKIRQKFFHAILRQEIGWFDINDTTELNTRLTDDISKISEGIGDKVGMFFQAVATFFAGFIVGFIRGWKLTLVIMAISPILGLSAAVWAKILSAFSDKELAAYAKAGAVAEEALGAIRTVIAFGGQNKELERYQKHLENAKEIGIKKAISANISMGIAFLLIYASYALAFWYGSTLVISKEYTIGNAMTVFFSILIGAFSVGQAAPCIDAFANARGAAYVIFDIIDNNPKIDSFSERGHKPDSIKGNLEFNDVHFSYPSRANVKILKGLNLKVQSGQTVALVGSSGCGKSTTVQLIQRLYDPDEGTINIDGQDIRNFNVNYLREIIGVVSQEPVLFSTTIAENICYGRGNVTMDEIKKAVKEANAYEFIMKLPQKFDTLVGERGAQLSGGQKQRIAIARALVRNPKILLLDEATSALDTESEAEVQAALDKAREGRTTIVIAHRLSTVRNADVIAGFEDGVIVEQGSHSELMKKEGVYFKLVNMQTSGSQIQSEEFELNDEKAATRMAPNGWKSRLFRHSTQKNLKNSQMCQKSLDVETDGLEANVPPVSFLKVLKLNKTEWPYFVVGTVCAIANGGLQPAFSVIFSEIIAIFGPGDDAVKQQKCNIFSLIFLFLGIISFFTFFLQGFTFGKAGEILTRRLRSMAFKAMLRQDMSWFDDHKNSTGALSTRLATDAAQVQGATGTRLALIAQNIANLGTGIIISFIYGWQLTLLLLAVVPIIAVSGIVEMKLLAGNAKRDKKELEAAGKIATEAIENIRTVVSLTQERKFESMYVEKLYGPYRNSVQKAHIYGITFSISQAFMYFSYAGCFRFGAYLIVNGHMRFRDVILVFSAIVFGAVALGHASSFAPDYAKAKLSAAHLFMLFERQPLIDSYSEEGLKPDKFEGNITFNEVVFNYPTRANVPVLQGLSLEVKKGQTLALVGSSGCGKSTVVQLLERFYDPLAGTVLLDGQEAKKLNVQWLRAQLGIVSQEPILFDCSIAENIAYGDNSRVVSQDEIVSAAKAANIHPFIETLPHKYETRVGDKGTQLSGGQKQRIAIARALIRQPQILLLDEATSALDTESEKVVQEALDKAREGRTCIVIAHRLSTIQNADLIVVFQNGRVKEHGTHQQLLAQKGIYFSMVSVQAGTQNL
T3 sequence (P49759 whole entry): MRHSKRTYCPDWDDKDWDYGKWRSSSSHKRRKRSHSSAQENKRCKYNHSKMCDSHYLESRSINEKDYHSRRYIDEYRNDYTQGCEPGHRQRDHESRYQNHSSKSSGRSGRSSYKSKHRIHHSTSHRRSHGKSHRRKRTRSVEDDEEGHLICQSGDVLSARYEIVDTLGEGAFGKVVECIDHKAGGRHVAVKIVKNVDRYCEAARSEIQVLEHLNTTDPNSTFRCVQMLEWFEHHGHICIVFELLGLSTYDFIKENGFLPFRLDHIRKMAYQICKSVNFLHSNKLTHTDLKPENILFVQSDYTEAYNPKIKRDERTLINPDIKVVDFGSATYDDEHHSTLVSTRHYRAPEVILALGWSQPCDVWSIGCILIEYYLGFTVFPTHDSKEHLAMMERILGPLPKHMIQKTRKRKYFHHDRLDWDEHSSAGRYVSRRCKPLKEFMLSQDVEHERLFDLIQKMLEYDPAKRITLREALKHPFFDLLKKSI
T5 sequence (P21439 1-1279 isoform P21439-2 I541F): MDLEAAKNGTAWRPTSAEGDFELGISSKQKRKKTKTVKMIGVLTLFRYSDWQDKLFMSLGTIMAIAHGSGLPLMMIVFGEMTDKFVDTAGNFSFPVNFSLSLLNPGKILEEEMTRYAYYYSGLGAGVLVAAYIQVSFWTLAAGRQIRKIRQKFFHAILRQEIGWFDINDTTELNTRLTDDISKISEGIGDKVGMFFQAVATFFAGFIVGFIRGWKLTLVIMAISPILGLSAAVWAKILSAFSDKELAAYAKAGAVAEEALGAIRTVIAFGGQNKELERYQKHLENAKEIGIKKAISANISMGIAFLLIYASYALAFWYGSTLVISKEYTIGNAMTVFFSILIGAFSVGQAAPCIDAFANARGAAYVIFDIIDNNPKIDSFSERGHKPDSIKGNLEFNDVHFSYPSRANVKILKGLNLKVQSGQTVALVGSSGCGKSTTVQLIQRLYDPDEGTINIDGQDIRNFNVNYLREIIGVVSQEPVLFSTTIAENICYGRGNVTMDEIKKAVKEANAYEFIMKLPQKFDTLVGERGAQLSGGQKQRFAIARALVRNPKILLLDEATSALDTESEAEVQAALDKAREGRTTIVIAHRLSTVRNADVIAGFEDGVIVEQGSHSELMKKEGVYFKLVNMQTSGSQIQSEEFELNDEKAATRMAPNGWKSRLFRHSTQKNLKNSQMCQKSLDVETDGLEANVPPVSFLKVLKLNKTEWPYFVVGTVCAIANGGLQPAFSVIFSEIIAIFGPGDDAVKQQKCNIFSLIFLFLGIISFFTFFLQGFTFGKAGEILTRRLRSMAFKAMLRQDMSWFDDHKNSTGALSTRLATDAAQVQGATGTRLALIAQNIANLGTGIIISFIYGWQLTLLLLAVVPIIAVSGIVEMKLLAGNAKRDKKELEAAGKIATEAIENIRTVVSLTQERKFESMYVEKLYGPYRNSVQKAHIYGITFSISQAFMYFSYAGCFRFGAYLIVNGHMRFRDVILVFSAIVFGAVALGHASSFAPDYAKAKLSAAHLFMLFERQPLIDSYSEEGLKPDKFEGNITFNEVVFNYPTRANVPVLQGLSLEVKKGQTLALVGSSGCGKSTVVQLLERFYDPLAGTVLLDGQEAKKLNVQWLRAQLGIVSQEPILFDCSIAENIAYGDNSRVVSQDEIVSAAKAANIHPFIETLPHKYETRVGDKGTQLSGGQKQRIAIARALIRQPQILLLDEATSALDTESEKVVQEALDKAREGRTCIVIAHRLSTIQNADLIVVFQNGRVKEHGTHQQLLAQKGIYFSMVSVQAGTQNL

On to `CC[C@@H](Nc1nc(NCc2cccc(F)c2)c2ncn(C3CCCC3)c2n1)C(=O)O` [MRT2-235], for which, on ABCB4-I490T [1], the “PC secretion residual activity of ABCB4-I490T” value (“PC secretion residual activity” below) is listed as “significant increase of the residual activity”. In addition, the pIC50 on CDK2/A was 5.23; at CK1 it was 5.15; on CLK1, 4.96; on ABCB4-WT, 4.68; at GSK3 it was < 5.00; at CDK9/T, 5.15. Also, at ABCB4-WT, the “inhibition of ABCB4-WT-mediated PC secretion compared to roscovitine” value (“inhibition … compared to roscovitine” below) was “less inhibitory than the original molecule”. On ABCB4-WT, the “log IC50 on the PC secretion activity of ABCB4-WT” value (“log IC50” below) is −4.678. The “PC secretion activity of ABCB4-I541F (residual activity)” value at ABCB4-I541F [2] stood at 19.0±3.4%. On ABCB4-I490T [3], the “relocalisation of ABCB4-I490T at bile canaliculi” value (from here on “relocalisation of ABCB4-I490T”) was “partially relocalised at bile canaliculi”. In addition, the “maturation (mature form) of ABCB4-I541F” value on ABCB4-I541F [4] is recorded as “significantly increase the expression of a mature form of ABCB4-I541F; also recorded: significant rescue of the maturation”. Besides, at ABCB4-I541F [4], the “correction of ABCB4-I541F maturation” value is on record as “dose-dependent correction of ABCB4-I541F maturation”.
Consider `CC[C@@H](Nc1nc(NCc2cccc(Cl)c2)c2ncn(C3CCCC3)c2n1)C(=O)O` [MRT2-237], for which the “PC secretion residual activity” value on ABCB4-I490T [1] is listed as “significant increase of the residual activity”. The pIC50 is 5.47 on CDK2/A; 5.48 on CK1; 5.07 on CLK1; 4.53 at ABCB4-WT; < 5.00 on GSK3; 5.05 on CDK9/T. Moreover, the “inhibition … compared to roscovitine” value at ABCB4-WT was “less inhibitory than the original molecule”. On ABCB4-WT, the “log IC50” value is listed as −4.533. In addition, the “PC secretion activity of ABCB4-I541F (residual activity)” value on ABCB4-I541F [2] was determined as 13.0±3.5%. For the same molecule, at ABCB4-I490T [3], the “relocalisation of ABCB4-I490T” value is recorded as “partially relocalised at bile canaliculi”. Also, the “maturation (mature form) of ABCB4-I541F” value at ABCB4-I541F [4] is recorded as “significantly increase the expression of a mature form of ABCB4-I541F; also recorded: significant rescue of the maturation”. For the same molecule, the “correction of ABCB4-I541F maturation” value at ABCB4-I541F [4] was “dose-dependent correction of ABCB4-I541F maturation”.
For `CC[C@@H](Nc1nc(NCc2ccc(Cl)c(F)c2)c2ncn(C3CCCC3)c2n1)C(=O)O` [MRT2-243], the “PC secretion residual activity” value at ABCB4-I490T [1] is listed as “significant increase of the residual activity”. Also, the pIC50 on CDK2/A is 5.52; on CK1, 5.21; on CLK1, 4.70; on ABCB4-WT, 4.75; at GSK3, < 5.00; on CDK9/T, 5.30. Further, the “inhibition … compared to roscovitine” value against ABCB4-WT is listed as “less inhibitory than the original molecule”. For the same molecule, the “log IC50” value on ABCB4-WT is reported as −4.754. In addition, the “PC secretion activity of ABCB4-I541F (residual activity)” value at ABCB4-I541F [2] was 22.5±6.2%. Also, the “relocalisation of ABCB4-I490T” value on ABCB4-I490T [3] is on record as “partially relocalised at bile canaliculi”. Besides, the “maturation (mature form) of ABCB4-I541F” value on ABCB4-I541F [4] is listed as “significantly increase the expression of a mature form of ABCB4-I541F; also recorded: significant rescue of the maturation”. Further, the “correction of ABCB4-I541F maturation” value on ABCB4-I541F [4] is recorded as “dose-dependent correction of ABCB4-I541F maturation”.
